In patent US20100104552A1, “ANTIBIOTIC SYNERGISM” (priority 2008, published 2010):

What was measured:
Format in all cases: cell-based
bacterial membrane [1] = test: K+-efflux of exposed bacteria; settings: bacteria exposed to the defensin
bacterial cells = test: Traditional incorporation studies
[2] = tested on: vancomycin-resistant Staphylococcus aureus (VRSA); test: Cross-resistance with vancomycin resistance
bacterial membrane [3] = test: Trans-membrane potential of exposed bacteria; settings: bacteria exposed to the defensin

Row | Substance | K+-efflux (bacterial membrane [1]) | incorporation of cell wall precursors (bacterial cells) | cross-resistance [2] | trans-membrane potential (bacterial membrane [3])
1 | GFGCNGPWNEDDLRCHNHCKSIKGYKGGYCAKGGFVCKCY [Defensin2114] | No K^+-efflux could be detected | severely affected | No cross-resistance | remained intact
2 | Plectasin | No K^+-efflux could be detected | severely affected | No cross-resistance | remained intact
